What is called inhibition is the drop in the measured response relative to a control, in per cent. The term melting point denotes the temperature, or range, at which the solid turns liquid.

Here are results for 19 compounds from US10653146B2, “Microbiocidal oxadiazole derivatives” (SYNGENTA PARTICIPATIONS AG, priority 2016, dated 2020).

For data set [1], the system named is Puccinia recondita f. Sp. Tritici. Kind of data set: Fungicidal activity against Puccinia recondita f. sp. tritici / wheat / leaf disc preventative (brown rust). Format: in vivo. The conditions noted are these: foliar, 200 ppm in the applied formulation, wheat leaf segments cv. Kanzler, inoculated 1 day after application, assessed 7 to 9 days after application, read-out: disease control compared to untreated control leaf disks. As for the experimental part: Leaf disks or leaf segments of various plant species are cut from plants grown in a greenhouse. The cut leaf disks or segments are placed in multiwell plates (24-well format) onto water agar. The leaf disks are sprayed with a test solution before (preventative) or after (curative) inoculation. Compounds to be tested are prepared as DMSO solutions (max. 10 mg/ml) which are diluted to the appropriate concentration with 0.025% Tween20 just before spraying. The inoculated leaf disks or segments are incubated under defined conditions (temperature, relative humidity, light, etc.) according to the respective test system. A single evaluation of disease level is carried out 3 to 14 days after inoculation, depending on the pathosystem. Percent disease control relative to the untreated check leaf disks or segments is then calculated. Wheat leaf segments cv. Kanzler were placed on agar in multiwell plates (24-well format) and sprayed with the formulated test compound diluted in water. The leaf disks were inoculated with a spore suspension of the fungus 1 day after application. The inoculated leaf segments were incubated at 19° C. and 75% relative humidity (rh) under a light regime of 12 hours light/12 hours darkness in a climate cabinet and the activity of a compound was assessed as percent disease control compared to untreated when an appropriate level of disease damage appears in untreated check leaf segments (7 to 9 days after application). The following compounds at 200 ppm in the applied formulation give at least 80% disease control in this test when compared to untreated control leaf disks under the same conditions, which show extensive disease development.

The test system of data set [2] is Glomerella lagenarium (Colletotrichum lagenarium). The data set can be described thus: Fungicidal activity against Glomerella lagenarium (Colletotrichum lagenarium) liquid culture / cucumber / preventative (anthracnose). It counts as cell-based. As to conditions: Colletotrichum orbiculare; 20 ppm in the applied formulation; liquid culture in PDB, 24° C.; 3 to 4 days after application; read-out: disease control compared to untreated control (inhibition of growth measured photometrically). Here is the method: Mycelia fragments or conidia suspensions of a fungus prepared either freshly from liquid cultures of the fungus or from cryogenic storage, are directly mixed into nutrient broth. DMSO solutions of the test compound (max. 10 mg/ml) are diluted with 0.025% Tween20 by a factor of 50 and 10 μl of this solution is pipetted into a microtiter plate (96-well format). The nutrient broth containing the fungal spores/mycelia fragments is then added to give an end concentration of the tested compound. The test plates are incubated in the dark at 24° C. and 96% relative humidity. The inhibition of fungal growth is determined photometrically after 2 to 7 days, depending on the pathosystem, and percent antifungal activity relative to the untreated check is calculated.
Conidia of the fungus from cryogenic storage are directly mixed into nutrient broth (PDB—potato dextrose broth). After placing a (DMSO) solution of test compound into a microtiter plate (96-well format), the nutrient broth containing the fungal spores is added. The test plates are incubated at 24° C. and the inhibition of growth is measured photometrically 3 to 4 days after application.
The following compounds at 20 ppm in the applied formulation give at least 80% disease control in this test when compared to untreated control under the same conditions, which show extensive disease development.

Data set [3] relates to Puccinia recondite f. Sp. Tritici. The data set can be described thus: Fungicidal activity against Puccinia recondite f. sp. tritici / wheat / leaf disc curative (brown rust). Format: in vivo. As to conditions: foliar, 200 ppm in the applied formulation, wheat leaf segments cv. Kanzler, applied 1 day after inoculation, assessed 6 to 8 days after application, read-out: disease control compared to untreated control leaf disks. As for the experimental part:
Leaf disks or leaf segments of various plant species are cut from plants grown in a greenhouse. The cut leaf disks or segments are placed in multiwell plates (24-well format) onto water agar. The leaf disks are sprayed with a test solution before (preventative) or after (curative) inoculation. Compounds to be tested are prepared as DMSO solutions (max. 10 mg/ml) which are diluted to the appropriate concentration with 0.025% Tween20 just before spraying. The inoculated leaf disks or segments are incubated under defined conditions (temperature, relative humidity, light, etc.) according to the respective test system. A single evaluation of disease level is carried out 3 to 14 days after inoculation, depending on the pathosystem. Percent disease control relative to the untreated check leaf disks or segments is then calculated.
Wheat leaf segments cv. Kanzler are placed on agar in multiwell plates (24-well format). The leaf segments are then inoculated with a spore suspension of the fungus. Plates were stored in darkness at 19° C. and 75% relative humidity. The formulated test compound diluted in water was applied 1 day after inoculation. The leaf segments were incubated at 19° C. and 75% relative humidity under a light regime of 12 hours light/12 hours darkness in a climate cabinet and the activity of a compound was assessed as percent disease control compared to untreated when an appropriate level of disease damage appears in untreated check leaf segments (6 to 8 days after application).
The following compounds at 200 ppm in the applied formulation give at least 80% disease control in this test when compared to untreated control leaf disks under the same conditions, which show extensive disease development.

Some results are limits rather than exact numbers.

On to `C=CCONC(=O)C(=O)c1ccc(-c2noc(C(F)(F)F)n2)cc1` [Compound 1.6, N-allyloxy-2-oxo-2-[4-[5-(trifluoromethyl)-1,2,4-oxadiazol-3-yl]phenyl]acetamide], for which the pest or weed control at 200 ppm in data set [1] was no less than 80%.

On to `O=C(NCC1COCCO1)C(=O)c1ccc(-c2noc(C(F)(F)F)n2)cc1` (stereo not drawn) [Compound 1.28, N-(1,4-dioxan-2-ylmethyl)-2-oxo-2-[4-[5-(trifluoromethyl)-1,2,4-oxadiazol-3-yl]phenyl]acetamide], for which, in data set [2], the inhibition at 20 ppm is no less than 80%. Moreover, the pest or weed control at 200 ppm in data set [1] and in data set [3] was no less than 80% in each case.

`Cl.NCCNC(=O)C(=O)c1ccc(-c2noc(C(F)(F)F)n2)cc1` [Compound 1.9, 2-[[2-oxo-2-[4-[5-(trifluoromethyl)-1,2,4-oxadiazol-3-yl]phenyl]acet-yl]amino]ethyl-ammonium; chloride]: the melting point is 213 to 214 °C. Further, in data set [2], the inhibition at 20 ppm was no less than 80%. Further, the pest or weed control at 200 ppm in data set [1] is no less than 80%. The pest or weed control at 200 ppm in data set [3] was no less than 80%.

`CCON(C)C(=O)C(=O)c1ccc(-c2noc(C(F)(F)F)n2)cc1` [Compound 1.32, N-ethoxy-N-methyl-2-oxo-2-[4-[5-(trifluoromethyl)-1,2,4-oxadiazol-3-yl]phenyl]acetamide]: in data set [2], the inhibition at 20 ppm is no less than 80%. The pest or weed control at 200 ppm in data set [1] and in data set [3] was no less than 80% throughout.

Take `CC(=O)NCCNC(=O)C(=O)c1ccc(-c2noc(C(F)(F)F)n2)cc1` [Compound 1.11, N-(2-acetamidoethyl)-2-oxo-2-[4-[5-(trifluoromethyl)-1,2,4-oxadiazol-3-yl]phenyl]acetamide]: the inhibition at 20 ppm in data set [2] was no less than 80%. Besides, the pest or weed control at 200 ppm in data set [1] and in data set [3] was no less than 80% throughout.

Take `Cc1ccsc1CN(C)C(=O)C(=O)c1ccc(-c2noc(C(F)(F)F)n2)cc1` [Compound 1.29, N-methyl-N-[(3-methyl-2-thienyl)methyl]-2-oxo-2-[4-[5-(trifluoromethyl)-1,2,4-oxadiazol-3-yl]phenyl]acetamide]: the inhibition at 20 ppm in data set [2] was no less than 80%.

As for `O=C(NCCNC(=O)C1CC1)C(=O)c1ccc(-c2noc(C(F)(F)F)n2)cc1` [Compound 1.8, N-[2-[[2-oxo-2-[4-[5-(trifluoromethyl)-1,2,4-oxadiazol-3-yl]phenyl]acet-yl]amino]eth-yl]cyclopropane-carboxamide], the melting point lay within 209 to 210 °C. Also, the inhibition at 20 ppm in data set [2] is no less than 80%. Besides, the pest or weed control at 200 ppm in data set [1] is no less than 80%.

In turn, `COC(CNC(=O)C(=O)c1ccc(-c2noc(C(F)(F)F)n2)cc1)OC` [Compound 1.38, N-(2,2-dimethoxyethyl)-2-oxo-2-[4-[5-(trifluoromethyl)-1,2,4-oxadiazol-3-yl]phenyl]acetamide] yielded a melting point of 88 to 89 °C. For the same compound, in data set [2], the inhibition at 20 ppm is no less than 80%. In addition, the pest or weed control at 200 ppm in data set [1] is no less than 80%. The pest or weed control at 200 ppm in data set [3] was no less than 80%.

As to `CN(C)C(=O)C(=O)c1ccc(-c2noc(C(F)(F)F)n2)cc1` [Compound 1.5, N,N-dimethyl-2-oxo-2-[4-[5-(trifluoromethyl)-1,2,4-oxadiazol-3-yl]phenyl]acetamide], the inhibition at 20 ppm in data set [2] is no less than 80%. Also, the pest or weed control at 200 ppm in data set [1] and in data set [3] was no less than 80% throughout.

With `COCCN(CCOC)C(=O)C(=O)c1ccc(-c2noc(C(F)(F)F)n2)cc1` [Compound 1.30, N,N-bis(2-methoxyethyl)-2-oxo-2-[4-[5-(trifluoromethyl)-1,2,4-oxadiazol-3-yl]phenyl]acetamide], in data set [2], the inhibition at 20 ppm is no less than 80%. Also, in data set [3], the pest or weed control at 200 ppm was no less than 80%.

Consider `COC(=O)CNC(=O)C(=O)c1ccc(-c2noc(C(F)(F)F)n2)cc1` [Compound 1.36, methyl 2-[[2-oxo-2-[4-[5-(trifluoromethyl)-1,2,4-oxadiazol-3-yl]phenyl]acet-yl]amino]acetate], for which the melting point was in the range of 89 to 90 °C. The inhibition at 20 ppm in data set [2] was no less than 80%. Moreover, in data set [3], the pest or weed control at 200 ppm was no less than 80%.

`CN(C(=O)C(=O)c1ccc(-c2noc(C(F)(F)F)n2)cc1)c1ccccc1` [Compound 1.33, N-methyl-2-oxo-N-phenyl-2-[4-[5-(trifluoromethyl)-1,2,4-oxadiazol-3-yl]phenyl]acetamide]: the inhibition at 20 ppm in data set [2] was no less than 80%.

For the compound `CN(C)CCNC(=O)C(=O)c1ccc(-c2noc(C(F)(F)F)n2)cc1` [Compound 1.2, N-[2-(dimethyl-amino)ethyl]-2-oxo-2-[4-[5-(trifluoromethyl)-1,2,4-oxadiazol-3-yl]phenyl]acetamide], in data set [2], the inhibition at 20 ppm is no less than 80%.

On to `O=C(NCC(F)F)C(=O)c1ccc(-c2noc(C(F)(F)F)n2)cc1` [Compound 1.10, N-(2,2-difluoroethyl)-2-oxo-2-[4-[5-(trifluoromethyl)-1,2,4-oxadiazol-3-yl]phenyl]acetamide], for which, in data set [2], the inhibition at 20 ppm was no less than 80%. Besides, the pest or weed control at 200 ppm in data set [1] and in data set [3] was no less than 80% each time.

For the compound `CSCCNC(=O)C(=O)c1ccc(-c2noc(C(F)(F)F)n2)cc1` [Compound 1.23, N-(2-methyl-sulfanylethyl)-2-oxo-2-[4-[5-(trifluoromethyl)-1,2,4-oxadiazol-3-yl]phenyl]acetamide], in data set [2], the inhibition at 20 ppm is no less than 80%. Further, the pest or weed control at 200 ppm in data set [1] and in data set [3] was no less than 80% in each case.

Regarding `O=C(NOCC(F)F)C(=O)c1ccc(-c2noc(C(F)(F)F)n2)cc1` [Compound 1.4, N-(2,2-difluoroethoxy)-2-oxo-2-[4-[5-(trifluoromethyl)-1,2,4-oxadiazol-3-yl]phenyl]acetamide], the inhibition at 20 ppm in data set [2] was no less than 80%. Also, in data set [1], the pest or weed control at 200 ppm was no less than 80%.

On to `CON1CCN(C(=O)C(=O)c2ccc(-c3noc(C(F)(F)F)n3)cc2)CC1` [Compound 1.3, 1-(4-methoxypiperazin-1-yl)-2-[4-[5-(trifluoromethyl)-1,2,4-oxadiazol-3-yl]phenyl]ethane-1,2-dione], for which the inhibition at 20 ppm in data set [2] was no less than 80%. The pest or weed control at 200 ppm in data set [1] was no less than 80%.

Turning to `COCCNC(=O)C(=O)c1ccc(-c2noc(C(F)(F)F)n2)cc1` [Compound 1.40, N-(2-methoxy-ethyl)-2-oxo-2-[4-[5-(trifluoromethyl)-1,2,4-oxadiazol-3-yl]phenyl]acetamide], the inhibition at 20 ppm in data set [2] is no less than 80%. Also, the pest or weed control at 200 ppm in data set [1] and in data set [3] was no less than 80% each time.

With `CCCN(C)C(=O)C(=O)c1ccc(-c2noc(C(F)(F)F)n2)cc1` [Compound 1.22, N-methyl-2-oxo-N-propyl-2-[4-[5-(trifluoromethyl)-1,2,4-oxadiazol-3-yl]phenyl]acetamide], in data set [2], the inhibition at 20 ppm is no less than 80%. For the same compound, the pest or weed control at 200 ppm in data set [1] and in data set [3] was no less than 80% each time.
